Test results as given in patent US12065436B2, “Cardiac sarcomere inhibitors” (Cytokinetics, Inc., priority 2018, dated 2024).

Molecular target: bovine cardiac myofibrils (full-length cardiac myosin ATPase in the native sarcomere) (Bos taurus (Bovine), UniProt Q9BE39)
Assay: Skinned bovine cardiac myofibril ATPase assay (PK/LDH-coupled)
Format: biochemical
Settings: Ca2+ activating to 75% of maximal rate; for CDMF75 IC15: concentration giving 15% inhibition; for IC50: read-out: CDMF75 IC50
Experimental: To evaluate the effect of compounds on the ATPase activity of full-length cardiac myosin in the context of the native sarcomere, skinned myofibril assays were performed. Bovine cardiac myofibrils were obtained by homogenizing bovine cardiac left ventricular tissue in the presence of a detergent such as triton X-100. Such treatment removes membranes and a majority of the soluble cytoplasmic proteins but leaves intact the cardiac sarcomeric acto-myosin apparatus. Myofibril preparations retain the ability to hydrolyze ATP in an Ca^2+ regulated manner. ATPase activities of such myofibril preparations in the presence and absence of compounds were assayed at Ca^2+ concentrations activating to a defined fraction of the maximal rate (i.e., 25%, 75%). Small molecule agents were assessed for their ability to inhibit the steady-state ATPase activity of bovine cardiac myofibrils using pyruvate kinase and lactate dehydrogenase (PK/LDH)-coupled enzyme system. This assay regenerates myosin-produced ADP into ATP by oxidizing NADH, producing an absorbance change at 340 nm. Prior to testing small molecule agents, the bovine cardiac myofibrils were assessed for their calcium responsiveness and the calcium concentration that achieves either a 50% (pCa50) or 75% (pCa75) activation of the myofibril system was chosen as the final condition for assessing the inhibitory activity of the small molecule agents. All enzymatic activity was measured in a buffered solution containing 12 mM PIPES (piperazine-N,N′-bis(2-ethanesulfonic acid), 2 mM magnesium chloride at pH 6.8 (PM 12 buffer). Final assay conditions were 1 mg/mL of bovine cardiac myofibrils, 4 U/mL pyruvate kinase, 6 U/mL lactate dehydrogenase, 50 μM ATP, 0.1 mg/mL BSA (bovine serum albumin), 10 ppm antifoam, 1 mM DTT, 0.5 mM NADH, 1.5 mM PEP, 0.6 mM EGTA, and an amount of CaCl2) sufficient to achieve either 50% or 75% activation of the myofibril ATPase activity.

Sequence of bovine cardiac myofibrils (full-length cardiac myosin ATPase in the native sarcomere) (Q9BE39 whole entry): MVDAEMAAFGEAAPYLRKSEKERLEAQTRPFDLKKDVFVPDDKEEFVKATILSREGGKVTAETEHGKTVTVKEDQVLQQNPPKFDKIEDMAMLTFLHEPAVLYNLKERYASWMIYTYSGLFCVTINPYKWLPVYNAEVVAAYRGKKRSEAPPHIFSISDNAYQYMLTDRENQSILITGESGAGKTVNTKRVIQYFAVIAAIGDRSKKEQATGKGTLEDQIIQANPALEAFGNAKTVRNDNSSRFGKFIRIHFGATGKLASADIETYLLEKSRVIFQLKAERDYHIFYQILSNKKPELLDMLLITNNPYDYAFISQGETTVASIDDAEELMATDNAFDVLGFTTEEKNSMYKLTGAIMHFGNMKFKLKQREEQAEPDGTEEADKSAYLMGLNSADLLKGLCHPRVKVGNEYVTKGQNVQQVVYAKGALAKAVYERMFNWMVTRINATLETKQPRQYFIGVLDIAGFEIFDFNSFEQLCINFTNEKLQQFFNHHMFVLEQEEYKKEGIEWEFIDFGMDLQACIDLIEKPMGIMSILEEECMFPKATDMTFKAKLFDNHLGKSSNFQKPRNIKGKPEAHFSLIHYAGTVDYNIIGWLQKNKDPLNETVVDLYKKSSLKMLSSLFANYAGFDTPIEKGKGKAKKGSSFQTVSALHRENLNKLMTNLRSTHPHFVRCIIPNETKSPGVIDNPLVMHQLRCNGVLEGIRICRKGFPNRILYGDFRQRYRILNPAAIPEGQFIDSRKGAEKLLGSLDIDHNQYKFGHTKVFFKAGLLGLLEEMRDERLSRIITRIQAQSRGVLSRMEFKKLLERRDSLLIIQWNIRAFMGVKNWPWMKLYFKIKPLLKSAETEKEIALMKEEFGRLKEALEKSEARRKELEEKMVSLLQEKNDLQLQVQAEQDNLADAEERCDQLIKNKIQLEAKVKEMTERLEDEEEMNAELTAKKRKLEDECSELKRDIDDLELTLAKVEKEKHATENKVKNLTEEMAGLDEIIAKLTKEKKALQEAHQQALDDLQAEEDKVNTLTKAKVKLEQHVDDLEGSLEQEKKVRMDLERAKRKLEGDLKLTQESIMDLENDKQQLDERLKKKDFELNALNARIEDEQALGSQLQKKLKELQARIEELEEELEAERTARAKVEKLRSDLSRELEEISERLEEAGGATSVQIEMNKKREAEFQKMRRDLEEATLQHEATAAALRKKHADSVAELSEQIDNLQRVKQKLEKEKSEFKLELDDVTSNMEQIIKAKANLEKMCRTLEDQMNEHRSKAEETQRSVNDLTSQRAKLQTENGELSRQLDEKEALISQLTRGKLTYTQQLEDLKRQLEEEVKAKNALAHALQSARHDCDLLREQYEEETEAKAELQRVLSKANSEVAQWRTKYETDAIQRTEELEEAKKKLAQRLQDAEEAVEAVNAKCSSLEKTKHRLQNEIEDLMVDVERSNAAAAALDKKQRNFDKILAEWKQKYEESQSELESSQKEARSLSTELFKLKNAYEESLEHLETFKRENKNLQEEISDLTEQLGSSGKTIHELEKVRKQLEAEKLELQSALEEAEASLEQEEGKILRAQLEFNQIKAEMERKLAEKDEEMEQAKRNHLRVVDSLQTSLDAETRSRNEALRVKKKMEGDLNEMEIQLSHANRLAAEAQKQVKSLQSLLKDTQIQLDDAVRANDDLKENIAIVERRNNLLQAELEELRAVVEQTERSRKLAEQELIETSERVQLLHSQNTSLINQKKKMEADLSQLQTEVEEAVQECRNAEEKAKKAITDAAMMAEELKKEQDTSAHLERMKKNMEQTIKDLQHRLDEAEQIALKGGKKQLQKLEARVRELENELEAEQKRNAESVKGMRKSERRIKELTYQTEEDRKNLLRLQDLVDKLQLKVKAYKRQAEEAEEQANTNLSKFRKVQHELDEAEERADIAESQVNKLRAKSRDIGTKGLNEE
Sequence of bovine cardiac myofibrils (full-length cardiac myosin ATPase in the native sarcomere) (P85100 whole entry partner): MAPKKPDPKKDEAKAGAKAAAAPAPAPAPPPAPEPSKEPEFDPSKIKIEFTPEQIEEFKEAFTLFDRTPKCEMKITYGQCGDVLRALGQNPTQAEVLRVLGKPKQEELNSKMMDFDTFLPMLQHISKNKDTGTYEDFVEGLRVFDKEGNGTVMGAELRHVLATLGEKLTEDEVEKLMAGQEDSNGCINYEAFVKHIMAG
Sequence of bovine cardiac myofibrils (full-length cardiac myosin ATPase in the native sarcomere) (Q3SZE5 whole entry partner): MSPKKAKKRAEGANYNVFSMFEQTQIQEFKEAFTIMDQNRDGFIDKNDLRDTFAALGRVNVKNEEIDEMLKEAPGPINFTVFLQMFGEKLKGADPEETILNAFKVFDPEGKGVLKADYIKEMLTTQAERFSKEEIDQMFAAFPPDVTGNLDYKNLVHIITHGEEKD

Compound	CDMF75 IC15	IC50
CCn1nccc1C(=O)NC1CCc2cc(-c3noc(C(F)F)n3)ccc21 (stereo not drawn) [Compound 29, N-(5-(5-(difluoromethyl)-1,2,4-oxadiazol-3-yl)-2,3-dihydro-1H-inden-1-yl)-1-ethyl-1H-pyrazole-5-carboxamide]	1.2 µM	5.3 µM
Cc1cc(C(=O)NC2CCc3cc(-c4noc(C)n4)ccc32)on1 (stereo not drawn) [Compound 34, 3-methyl-N-(5-(5-methyl-1,2,4-oxadiazol-3-yl)-2,3-dihydro-1H-inden-1-yl)isoxazole-5-carboxamide]	2.1 µM	8.1 µM
Cc1cc(C(=O)NC2CCc3cc(-c4noc(C(F)F)n4)ccc32)cnn1 (stereo not drawn) [Compound 37, N-(5-(5-(difluoromethyl)-1,2,4-oxadiazol-3-yl)-2,3-dihydro-1H-inden-1-yl)-6-methylpyridazine-4-carboxamide]	2.1 µM	9.7 µM
Cc1nccnc1C(=O)NC1CCc2cc(-c3noc(C(F)F)n3)ccc21 (stereo not drawn) [Compound 38, N-(5-(5-(difluoromethyl)-1,2,4-oxadiazol-3-yl)-2,3-dihydro-1H-inden-1-yl)-3-methylpyrazine-2-carboxamide]	2.2 µM	9.5 µM
Cc1ncccc1C(=O)NC1CCc2cc(-c3noc(C(F)F)n3)ccc21 (stereo not drawn) [Compound 39, N-(5-(5-(difluoromethyl)-1,2,4-oxadiazol-3-yl)-2,3-dihydro-1H-inden-1-yl)-2-methylnicotinamide]	31.0 µM	> 39.2 µM
Cn1cc(C(=O)NC2CCc3cc(-c4noc(C(F)F)n4)ccc32)c(C(F)(F)F)n1 (stereo not drawn) [Compound 40, N-(5-(5-(difluoromethyl)-1,2,4-oxadiazol-3-yl)-2,3-dihydro-1H-inden-1-yl)-1-methyl-3-(trifluoromethyl)-1H-pyrazole-4-carboxamide]	3.9 µM	16.2 µM
Cc1cnc(C(=O)NC2CCc3cc(-c4noc(C(F)F)n4)ccc32)c(C)n1 (stereo not drawn) [Compound 41, N-(5-(5-(difluoromethyl)-1,2,4-oxadiazol-3-yl)-2,3-dihydro-1H-inden-1-yl)-3,5-dimethylpyrazine-2-carboxamide]	6.6 µM	> 39.2 µM
Cc1nc(-c2cnc3c(c2)CCC3NC(=O)c2ccccc2)no1 (stereo not drawn) [Compound 42, N-(3-(5-methyl-1,2,4-oxadiazol-3-yl)-6,7-dihydro-5H-cyclopental[b]pyridin-7-yl)benzamide]	7.2 µM	31.6 µM
Cc1nc(-c2ccc3c(c2)CCC3NC(=O)c2ccnc(O)c2)no1 (stereo not drawn) [Compound 43, 2-hydroxy-N-(5-(5-methyl-1,2,4-oxadiazol-3-yl)-2,3-dihydro-1H-inden-1-yl)isonicotinamide]	4.3 µM	14.1 µM
Cc1nc(-c2ccc3c(c2)CCC3NC(=O)c2cnn(C)n2)no1 (stereo not drawn) [Compound 44, 2-methyl-N-(5-(5-methyl-1,2,4-oxadiazol-3-yl)-2,3-dihydro-1H-inden-1-yl)-2H-1,2,3-triazole-4-carboxamide]	3.3 µM	12.3 µM
Cc1nc(-c2ccc3c(c2)CCC3NC(=O)c2cnc(C)n2C)no1 (stereo not drawn) [Compound 45, 1,2-dimethyl-N-(5-(5-methyl-1,2,4-oxadiazol-3-yl)-2,3-dihydro-1H-inden-1-yl)-1H-imidazole-5-carboxamide]	2.1 µM	7.6 µM
O=C(NC1CCc2cc(-c3noc(C(F)F)n3)ccc21)c1ccn[nH]1 (stereo not drawn) [Compound 49, N-(5-(5-(difluoromethyl)-1,2,4-oxadiazol-3-yl)-2,3-dihydro-1H-inden-1-yl)-1H-pyrazole-5-carboxamide]	9.8 µM	> 39.2 µM

The remaining compounds from weak to strong by IC50, led by results:

CDMF75 IC15	IC50	Compound
1.5 µM	5.2 µM	O=C(NC1CCc2cc(-c3noc(C(F)F)n3)ccc21)c1cn[nH]c1 (stereo not drawn) [Compound 50, N-(5-(5-(difluoromethyl)-1,2,4-oxadiazol-3-yl)-2,3-dihydro-1H-inden-1-yl)-1H-pyrazole-4-carboxamide]
1.4 µM	5 µM	Cc1cc(C(=O)NC2CCc3cc(-c4noc(C)n4)ccc32)n(C)n1 (stereo not drawn) [Compound 47, 1,3-dimethyl-N-(5-(5-methyl-1,2,4-oxadiazol-3-yl)-2,3-dihydro-1H-inden-1-yl)-1H-pyrazole-5-carboxamide]
1.4 µM	4.9 µM	Cc1nc(-c2ccc3c(c2)CC[C@H]3NC(=O)c2cnc(C)o2)no1 [Compound 48, (R)-2-methyl-N-(5-(5-methyl-1,2,4-oxadiazol-3-yl)-2,3-dihydro-1H-inden-1-yl)oxazole-5-carboxamide]
0.9 µM	4.7 µM	O=C(NC1CCc2cc(-c3noc(C(F)F)n3)ccc21)c1cnn2c1CCC2 (stereo not drawn) [Compound 36, N-(5-(5-(difluoromethyl)-1,2,4-oxadiazol-3-yl)-2,3-dihydro-1H-inden-1-yl)-5,6-dihydro-4H-pyrrolo[1,2-b]pyrazole-3-carboxamide]
1.3 µM	4.3 µM	Cc1nc(-c2ccc3c(c2)CCC3NC(=O)c2ccnc(N)c2)no1 (stereo not drawn) [Compound 33, 2-amino-N-(5-(5-methyl-1,2,4-oxadiazol-3-yl)-2,3-dihydro-1H-inden-1-yl)isonicotinamide]
1.2 µM	4.2 µM	Cc1nc(-c2ccc3c(c2)CCC3NC(=O)c2cnoc2C)no1 (stereo not drawn) [Compound 46, 5-methyl-N-(5-(5-methyl-1,2,4-oxadiazol-3-yl)-2,3-dihydro-1H-inden-1-yl)isoxazole-4-carboxamide]
1.2 µM	3.6 µM	Cc1nc(-c2ccc3c(c2)CCC3NC(=O)c2ocnc2C)no1 (stereo not drawn) [Compound 51, 4-methyl-N-(5-(5-methyl-1,2,4-oxadiazol-3-yl)-2,3-dihydro-1H-inden-1-yl)oxazole-5-carboxamide]
0.8 µM	3.4 µM	Cc1nn(C)cc1C(=O)NC1CCc2cc(-c3noc(C(F)F)n3)ccc21 (stereo not drawn) [Compound 28, N-(5-(5-(difluoromethyl)-1,2,4-oxadiazol-3-yl)-2,3-dihydro-1H-inden-1-yl)-1,3-dimethyl-1H-pyrazole-4-carboxamide]
0.8 µM	3.3 µM	Cc1c(C(=O)NC2CCc3cc(-c4noc(C(F)F)n4)ccc32)cnn1C (stereo not drawn) [Compound 27, N-(5-(5-(difluoromethyl)-1,2,4-oxadiazol-3-yl)-2,3-dihydro-1H-inden-1-yl)-1,5-dimethyl-1H-pyrazole-4-carboxamide]
0.8 µM	2.3 µM	Cc1cc(C(=O)NC2CCc3cc(-c4noc(C(F)F)n4)ccc32)n(C)n1 (stereo not drawn) [Compound 30, N-(5-(5-(difluoromethyl)-1,2,4-oxadiazol-3-yl)-2,3-dihydro-1H-inden-1-yl)-1,3-dimethyl-1H-pyrazole-5-carboxamide]
0.6 µM	2.3 µM	Cc1cc(C(=O)N[C@@H]2CCc3cc(-c4noc(C(F)F)n4)ccc32)ccn1 [Compound 32, (R)-N-(5-(5-(difluoromethyl)-1,2,4-oxadiazol-3-yl)-2,3-dihydro-1H-inden-1-yl)-2-methylisonicotinamide]
0.5 µM	1.6 µM	Cn1nccc1C(=O)NC1CCc2cc(-c3noc(C(F)F)n3)ccc21 (stereo not drawn) [Compound 35, N-(5-(5-(difluoromethyl)-1,2,4-oxadiazol-3-yl)-2,3-dihydro-1H-inden-1-yl)-1-methyl-1H-pyrazole-5-carboxamide]
